From patent publication US9974806B2 (priority 2012, dated 2018)

Test system: Shiga toxins

colloidal bismuth hydroxide gel [CBHG]
cytotoxic activity on Vero cells: significant decrease
